From patent US20230331694A1, “FAP-ACTIVATED COMPOUNDS FOR TREATMENT OF CANCER” (The Johns Hopkins University, priority 2020, published 2023)
Blank lines part the entries; values can stand above or below the compound they belong to.

Columns and labels:
[1] = system: SkCaP-1 (human PCa xenograft); assay: SkCaP-1 human PCa xenograft in NSG mice; format: in vivo; conditions: 30 mg/kg i.p. daily vs DMSO control (FIG. 4)
Method: Intact male NSG mice (3-4 per group) bearing SkCaP-1 (human PCa xenograft) were treated with 30 mg/kg Compound 4 (a tasquinimod compound) i.p. daily, or a control (DMSO).

[2] = target: T1, FAP (Homo sapiens, UniProt Q12884); assay: FAP-dependent activation of Compound 4 in vitro (HPLC); format: biochemical; design: purchased R&D Systems; conditions: buffer +/- rhFAP (20 nM) overnight (~16 hrs), 37° C., HPLC (FIG. 10)
T1 sequence (Q12884 1-760): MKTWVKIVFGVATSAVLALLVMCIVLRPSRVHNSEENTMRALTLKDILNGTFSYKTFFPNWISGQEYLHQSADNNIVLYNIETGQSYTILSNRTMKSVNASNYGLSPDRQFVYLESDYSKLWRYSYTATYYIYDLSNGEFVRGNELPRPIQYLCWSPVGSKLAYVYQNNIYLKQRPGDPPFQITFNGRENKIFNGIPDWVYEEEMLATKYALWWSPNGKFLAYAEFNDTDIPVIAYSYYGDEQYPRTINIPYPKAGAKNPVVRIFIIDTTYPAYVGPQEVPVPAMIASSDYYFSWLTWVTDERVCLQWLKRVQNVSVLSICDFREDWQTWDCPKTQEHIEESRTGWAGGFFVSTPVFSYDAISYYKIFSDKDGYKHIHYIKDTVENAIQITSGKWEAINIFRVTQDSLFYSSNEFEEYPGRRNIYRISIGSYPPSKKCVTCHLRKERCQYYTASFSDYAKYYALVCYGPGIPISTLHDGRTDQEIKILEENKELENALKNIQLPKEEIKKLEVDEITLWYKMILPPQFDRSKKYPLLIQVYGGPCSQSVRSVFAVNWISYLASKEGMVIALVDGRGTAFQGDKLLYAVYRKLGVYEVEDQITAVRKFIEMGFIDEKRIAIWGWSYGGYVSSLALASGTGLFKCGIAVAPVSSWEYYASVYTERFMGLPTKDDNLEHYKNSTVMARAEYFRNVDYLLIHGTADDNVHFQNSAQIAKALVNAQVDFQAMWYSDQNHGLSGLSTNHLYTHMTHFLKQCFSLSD
Method: Compound 4 was incubated in buffer +/- rhFAP (20 nM) overnight (~16 hrs), mixing at 37° C. Aliquots taken at indicated time points and the presence of Compound 4 (prodrug) and Tasquinimod (TasQ) were quantified via HPLC.

[3] = target: T2, DPPIV (Homo sapiens, UniProt P27487); assay: LC-MS assay of niclosamide production from prodrug with DPPIV; format: biochemical; conditions: 24 hrs
T2 construct: purchased R&D Systems
T2 sequence (P27487 whole entry): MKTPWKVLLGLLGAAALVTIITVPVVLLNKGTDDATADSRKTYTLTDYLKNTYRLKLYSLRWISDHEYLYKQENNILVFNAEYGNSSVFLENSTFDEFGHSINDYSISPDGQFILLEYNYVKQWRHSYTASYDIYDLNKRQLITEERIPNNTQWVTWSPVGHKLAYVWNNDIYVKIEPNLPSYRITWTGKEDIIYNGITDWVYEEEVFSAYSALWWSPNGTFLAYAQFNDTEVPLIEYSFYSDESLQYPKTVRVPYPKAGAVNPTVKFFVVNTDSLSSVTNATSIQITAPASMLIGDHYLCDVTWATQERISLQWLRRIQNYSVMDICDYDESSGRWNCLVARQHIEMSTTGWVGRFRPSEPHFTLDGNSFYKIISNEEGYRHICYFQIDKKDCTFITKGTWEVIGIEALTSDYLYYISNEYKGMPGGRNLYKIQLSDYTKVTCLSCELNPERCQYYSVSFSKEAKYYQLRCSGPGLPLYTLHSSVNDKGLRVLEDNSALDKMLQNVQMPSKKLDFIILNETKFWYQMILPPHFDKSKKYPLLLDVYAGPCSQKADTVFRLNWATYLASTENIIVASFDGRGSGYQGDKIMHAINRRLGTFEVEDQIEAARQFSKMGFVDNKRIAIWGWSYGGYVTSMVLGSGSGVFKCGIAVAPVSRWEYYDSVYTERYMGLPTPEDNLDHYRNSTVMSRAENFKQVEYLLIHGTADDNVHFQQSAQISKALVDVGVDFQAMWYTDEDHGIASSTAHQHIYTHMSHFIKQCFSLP
Method: (§1) In vitro Characterization of Enzymatic Activation Kinetics and FAP-specific Cellular UptakelCytotoxicity: Kinetics of compound activation by FAP is performed as previously described (Aggarwal et al. Biochemistry 47, 1076-1086 (2008); Denmeade et al. Sci TranslMed 4, 140ra186 (2012)). Briefly, increasing concentrations of the test compound (0-10 µM) are incubated with rhFAP, rhDPPIV, or rhPREP [20 nM] (R&D Systems) at 37° C. while shaking. Aliquots are taken to determine concentrations of the test compound and active drug compound at time points ranging from 0-24 hrs using the LCMS method described above in Example 4. Kinetic constants (Km and kcat) are calculated on the basis of the rate of hydrolysis (v) during the linear phase using Michaelis-Menten plots (v vs [S]) with nonlinear regression analysis. Cellular uptake in the presence or absence of rhFAP is determined in cell lysates using the same methodology. Cytotoxicity is determined via MTT in the presence or absence of rhFAP and/or a FAP-specific inhibitor (Jansen et al. J Med Chem 57, 3053-3074 (2014).

[4] = target: T3, PREP (Homo sapiens, UniProt P48147); assay: LC-MS assay of niclosamide production from prodrug with PREP; format: biochemical; conditions: 24 hrs
T3 construct: purchased R&D Systems
T3 sequence (P48147 1-710): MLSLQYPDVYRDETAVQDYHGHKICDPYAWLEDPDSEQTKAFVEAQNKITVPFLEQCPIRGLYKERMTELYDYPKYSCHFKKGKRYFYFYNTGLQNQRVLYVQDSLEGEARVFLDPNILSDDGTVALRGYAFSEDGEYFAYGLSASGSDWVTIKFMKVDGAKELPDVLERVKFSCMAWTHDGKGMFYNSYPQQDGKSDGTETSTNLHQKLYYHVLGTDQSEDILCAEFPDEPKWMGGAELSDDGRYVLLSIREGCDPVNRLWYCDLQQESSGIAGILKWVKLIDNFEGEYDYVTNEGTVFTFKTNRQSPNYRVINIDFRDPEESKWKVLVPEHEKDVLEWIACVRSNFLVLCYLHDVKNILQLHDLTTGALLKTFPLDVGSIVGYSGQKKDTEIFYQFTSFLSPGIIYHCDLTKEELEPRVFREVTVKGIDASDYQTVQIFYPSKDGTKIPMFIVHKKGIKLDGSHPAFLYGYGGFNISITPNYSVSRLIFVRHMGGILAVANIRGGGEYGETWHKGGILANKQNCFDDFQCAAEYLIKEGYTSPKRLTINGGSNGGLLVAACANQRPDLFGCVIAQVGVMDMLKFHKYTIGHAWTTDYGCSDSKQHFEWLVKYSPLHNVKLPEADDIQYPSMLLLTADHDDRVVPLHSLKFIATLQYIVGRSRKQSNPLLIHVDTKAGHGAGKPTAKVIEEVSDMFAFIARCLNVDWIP
Method: as §1

[5] = system: Myc-CaP-CR tumors; assay: Abiraterone-resistant CRPC tumor model (Myc-CaP-CR) in vivo
Method: Animals were treated with either abiraterone at 10 mg/kg by daily oral gavage alone or together with Compound 1 at 50 mg/kg IV on d0 and d4. Toxicity was monitored by measuring body weight and body score (i.e., appearance, lethargy, etc.).

[6] = target: T1, FAP; assay: Kinetics of FAP-dependent activation in vitro +/- BSA (HPLC); format: biochemical
Method: Compound 1 was incubated in Buffer (50 mM Tris-HCl, pH 7.4; 150 mM NaCI) +/-0.4% BSA in glass vials, mixing at 37° C. Aliquots were taken at indicated time points and the presence of Compound 1 (prodrug) and Niclosamide (active compound) were quantified via HPLC.

[7] = system: LNCaP cells; assay: Seahorse XF Cell Mito Stress Test; format: cell-based
Method: A mitochondrial stress test assay was performed using the Agilent Seahorse XF Cell Mito Stress Test Kit (catalog no. 103015-100), a widely-used assay for assessing mitochondrial function. Compound 1 or niclosamide (1 µM) was incubated overnight at 37° C. shaking, with or without FAP (20 nM) in Seahorse Media. This mixture was added to LNCaP cells (60 k cells) the next day, immediately prior to starting the assay (0.5 µM final concentration).

[8] = system: CWR22-H tumors; assay: Castration-resistant CWR22-H tumors in castrated male NSG mice; format: in vivo
Method: Castrated male NSG mice were inoculated with castration-resistant CWR22-H tumors in 50% Matrigel. When tumors reached ~0.2 cc, treatment with Compound 1 (40 mg/kg) via intraperitoneal (I.P.) injection was initiated. Tumor volumes and body weights were monitored 2x/wk. […] Treatment was well-tolerated as documented by weight loss of <20%.

[9] = target: T1, FAP; assay: LC-MS assay of FAP-dependent production of niclosamide from prodrug; format: biochemical; design: purchased R&D Systems
Method: as §1

[10] = Pharmacokinetics: plasma, liver, kidney, smooth muscle levels after Compound 1 dosing
Method: (§2) Column: Luna 2.5u C18, 100 mm ×2.5 mm (Phenomenex 00D-4446-B0). Mobile phase: A = 0.5% acetonitrile/H2O/0.1% formic acid; B= 95% acetonitrile/H2O/0.1% formic acid; Flow = 150 µL/min.

[11] = system: panel of benign and malignant cells; assay: MTT assay, potency of niclosamide against a panel of cells; format: cell-based; conditions: all cells tested (FIG. 3A)
Text: FIGS. 3A-3D show characterization data for a compound disclosed herein (Compound 1).

[12] = system: mammalian cells such as mCRPCs, TAMs, MSCs, and CAFs; conditions: all cells, including mammalian cells; read-out: LC50 (the source's name); cited from earlier work
[13] = in vivo, 40 mg/kg
Method: as §2

FAP-dependent activation to tasquinimod [2]: confirm FAP-dependent activation
SMILES: COc1cccc2c1c(OCc1ccc(NC(=O)C3CC(F)(F)CN3C(=O)CNC(=O)c3ccnc4ccccc34)cc1)c(C(=O)N(C)c1ccc(C(F)(F)F)cc1)c(=O)n2C (stereo not drawn) [Compound 4]
tumor growth (tumor volume) [1]: decreases tumor growth compared to the control

production of active niclosamide [3]: no production observed
production of active niclosamide [4]: no production observed
weight loss ([8]; 40 mg/kg daily IP): < 20%
production of active niclosamide ([9]; absence of enzyme, 24 hrs): no production observed
increase in active niclosamide ([9]; with FAP, over 24 hrs (FIG. 3B)): ~ 20 fold
plasma level as % of the IV dose ([10]; 40 mg/kg IP): ~ 50%
kidney level as % of the IV dose ([10]; 40 mg/kg IP, at ~4 hrs): ~ 30%
liver level as % of the IV dose ([10]; 40 mg/kg IP, at ~4 hrs): ~ 50%
converted to niclosamide (kidney) ([10]; Compound 1 administered IV or IP): < 10%
stability of the prodrug as a systemic therapy ([10]; in vivo, from tissue niclosamide levels): good stability
concentration at 1 hr ([10]; kidney, intravenous, 40 mg/kg): ~50 µM
concentration at 1 hr ([10]; kidney, oral, 40 mg/kg): ~1 µM
Kp at 1 hr ([10]; liver, intravenous, 40 mg/kg): 10 to 15
concentration at 1 hr ([10]; liver, intravenous, 40 mg/kg): ~100 µM
concentration at 1 hr ([10]; liver, oral, 40 mg/kg): ~10 µM
bioavailability ([10]; liver, po, 40 mg/kg): ~10%
half-life ([10]; plasma, intravenous, 40 mg/kg): 3 to 4 h
Cmax ([10]; plasma, iv, 40 mg/kg): ~7 µM
Cmax ([10]; plasma, po, 40 mg/kg): ~0.4 µM
bioavailability ([10]; plasma, po, 40 mg/kg): 5 to 10%
SMILES: O=C(Nc1ccc([N+](=O)[O-])cc1Cl)c1cc(Cl)ccc1OCc1ccc(NC(=O)C2CC(F)(F)CN2C(=O)CNC(=O)c2ccnc3ccccc23)cc1 (stereo not drawn) [Compound 1]
toxicity (body weight and body score) ([5]; Compound 1 50 mg/kg IV d0 and d4 together with abiraterone 10 mg/kg (FIG. 3D)): no evidence of toxicity
anti-tumor efficacy ([5]; Compound 1 50 mg/kg IV d0 and d4 together with abiraterone 10 mg/kg daily oral gavage (FIG. 3C)): significant anti-tumor efficacy
effect of BSA on production of the active compound ([6]; 0.4% BSA): BSA inhibits production of the active compound
prodrug and active compound over time ([6]; buffer pH 7.4, 37° C., HPLC (FIG. 5)): time-dependent increase in the active compound and concomitant decrease in the prodrug over time
baseline ECAR ([7]; activated by FAP): already at maximum
oxygen consumption rate (OCR), mitochondrial uncoupling ([7]; activated by FAP (20 nM) overnight, 0.5 µM final (FIG. 6)): uncouples mitochondria
extracellular acidification rate (ECAR) on oligomycin addition ([7]; activated by FAP (FIG. 7)): does not change with the addition of oligomycin
non-mitochondrial respiration ([7]; activated by FAP, after rotenone and antimycin A): no change in non-mitochondrial respiration
anti-tumor activity (tumor volume) ([8]; 40 mg/kg daily IP (FIG. 8)): Anti-tumor activity was observed

SMILES: O=C(Nc1ccc([N+](=O)[O-])cc1Cl)c1cc(Cl)ccc1O [Niclosamide, niclosamide]
IC50 [11]: < 500 nM
CC50 [12]: < 1000 nM
niclosamide in liver as % of Compound 1 concentrations [13]: 25-50%
niclosamide in plasma as % of Compound 1 dose [13]: < 10%
niclosamide in smooth muscle as % based on liver concentrations [13]: < 1%
niclosamide in smooth muscle as % of administered dose based on plasma concentrations [13]: 5-10%
niclosamide level in plasma [13]: < 1 µM
niclosamide level in smooth muscle [13]: < 1 µM
